15 compounds from publication PMC11355796, “Blue and Yellow Laccases from Alternaria sp. Strain HU: Characterization and Immobilization on Magnetic Nanoparticles” (Journal of Fungi, 2024) can be followed below.

Counter-ions that a name gives are not always drawn.

For one assay, the system named is T1, LacHU2.
T1 construct: native secreted enzyme purified from culture liquid; signal peptide of 18 residues
Briefly: initial-rate oxidation assay, Michaelis-Menten fit. In kind it is biochemical, Alternaria sp. HU. The conditions noted are these: free enzyme; apparent constant; read-out: Kinetic Parameters / KM, μM / LacHU2. The text has this:
initial-rate oxidation assay, Michaelis-Menten fit on LacHU2

Another assay has as its system T2, LacHU1.
T2 construct: native secreted enzyme purified from culture liquid; signal peptide of 18 residues
Description: initial-rate oxidation assay, Michaelis-Menten fit. The format is biochemical, Alternaria sp. HU. The conditions noted are these: free enzyme; apparent constant; read-out: Kinetic Parameters / KM, μM / LacHU1. The text has this: initial-rate oxidation assay, Michaelis-Menten fit on LacHU1

Take `COc1cccc(OC)c1O` [2,6-DMP]: the Km worked out at 4300 µM with LacHU2 and 10 ± 2 µM with LacHU1.

Take `OCCN1c2ccccc2Oc2ccccc21` [2-(10H-phenoxazin-10-yl)ethanol]: the Km with LacHU2 is 200 ± 50 µM; in the assay with LacHU1, 40 ± 10 µM.

Consider `CCn1c(=NN=c2sc3cc(S(=O)(=O)O)ccc3n2CC)sc2cc(S(=O)(=O)O)ccc21` [ABTS, 2,2’-azino-bis(3-ethylbenzothiazoline-6-sulfonic acid) diammonium salt], for which the Km came out at 5600 µM with LacHU2 and 60 ± 10 µM with LacHU1.

For `O=C(O)/C=C/c1ccc(O)c(O)c1` [Caffeic acid], the Km turned out to be 400 ± 30 µM in the assay with LacHU2 and 50 ± 3 µM in the assay with LacHU1.

Consider `Oc1ccccc1O` [Catechol], for which, in the assay with LacHU2, the Km was 20000 µM.

As for `O=C(/C=C/c1ccc(O)c(O)c1)O[C@@H]1C[C@](O)(C(=O)O)C[C@@H](O)[C@H]1O` [Chlorogenic acid], in the assay with LacHU2, the Km is 90 ± 40 µM.

In the case of `COc1cc(/C=C/C(=O)O)ccc1O` [Ferulic acid], the Km is 230 ± 30 µM in the assay on LacHU2 and 50 ± 4 µM in the assay on LacHU1.

In the case of `O=c1c(O)c(-c2ccc(O)c(O)c2)oc2cc(O)ccc12` [Fisetin], the Km in the assay with LacHU1 came to 15 ± 1 µM.

With `Oc1ccc(O)cc1` [Hydroquinone], the Km with LacHU2 is 13000 µM.

Consider `O=c1c(O)c(-c2cc(O)c(O)c(O)c2)oc2cc(O)cc(O)c12` [Myricetin], for which, in the assay with LacHU1, the Km stood at 2 ± 0.3 µM.

In the case of `CN(C)CCCN1c2ccccc2Sc2ccccc21` [Promazine hydrochloride], the Km with LacHU2 came to 2600 µM.

For `O=c1c(O)c(-c2ccc(O)c(O)c2)oc2cc(O)cc(O)c12` [Quercetin], the Km in the assay on LacHU1 came out at 2 ± 0.4 µM.

For `COc1cc(C=NN=Cc2cc(OC)c(O)c(OC)c2)cc(OC)c1O` [Syringaldazine], the Km in the assay on LacHU1 is 1 ± 0.1 µM.

Regarding `COc1cc(C(=O)O)cc(OC)c1O` [Syringic acid], the Km in the assay on LacHU1 was found to be 40 ± 0.5 µM.

Take `Nc1ccc(N)cc1` [p-Phenylenediamine]: the Km in the assay on LacHU2 amounted to 3600 µM.
